Results published in US7531567B2, “Use of a medicament containing an effector of the glutathione metabolism together with α-lipoic acid in kidney replacement therapy” (Serumwerk Bernburg AG, priority 2001, dated 2009).

Experiments:
Assay type in all cases: cell-based, human
[1] = test system: peritoneal macrophages; assay: stability of intracellular thiol restitution in peritoneal macrophages in the dialysis model
Method: The peritoneal macrophages described under example 3, which were thiol-restituted by means of the combinations used according to the invention, were removed from this test system after 6 days and cultured in a dialysis model over a period of 14 days. For this, the peritoneal macrophages were adapted to mobile collagen IV-coated matrices and brought into contact with conventional dialysis solution 3 times daily for 60 minutes each. This model served here for the induction of a combined […]/osmotic stress. In FIG. 6, the action of the combination of α-lipoic acid and ambroxole (FIG. 6a), and α-lipoic acid and enalapril (FIG. 6b) on the intracellular thiol expression of the peritoneal macrophages in the time kinetics is presented. The membrane expression of thiols was determined by means of the mean fluorescence intensity (mfi) of the sample (3000 cells/measurement) after coupling to a chloro-methylfluorochrome derivative.

[2] = test system: peritoneal macrophages; assay: degree of differentiation and activation of peritoneal macrophages (CD15, CD11c, CD69, CD71); conditions: incubation for 6 days, control = 1.0, α-lipoic acid 50 μM, ambroxole 10 μM, enalapril 5 μM, captopril 10 μM
Method: Peritoneal macrophages were isolated from patients under kidney replacement therapy according to the processes described under example 3 and cultured in the presence of the combinations of α-lipoic acid and effectors of the glutathione metabolism named according to the invention. After incubation for 6 days, the degree of differentiation of the peritoneal macrophages was determined cytofluorometrically by means of the expression of the cell surface antigens CD15 and CD11c, and the degree of cellular activation by means of the coexpression of the activation antigens CD69 on CD15-positive cells and CD71 on CD11c-positive cells.

[3] = test system: peritoneal macrophages; assay: membrane-bound thiol expression of peritoneal macrophages; conditions: FIG. 5
Method: Peritoneal macrophages were isolated from the effluate of the peritoneal dialysis of high-grade renally insufficient patients, taken up in cell culture medium and incubated in a gas incubator at 37° C., a relative humidity of 98% and 7.5% relative air-CO2 content. In order to test the influence of the combinations used according to the invention on the thiol status of the peritoneal macrophages, in each case a fraction was treated with α-lipoic acid, the effector of the glutathione metabolism ambroxole or the ACE inhibitor enalapril or with the combination of α-lipoic acid/ambroxole or α-lipoic acid/enalapril, while in each case a further fraction was used as an untreated control. The determination of the cellular thiol status was carried out by means of the measuring method described under 1. The membrane expression of thiols was determined by means of the mean fluorescence intensity (mfi) of the sample (3000 cells/measurement) after coupling to a chloromethylfluorochrome derivative. In FIG. 5, the action of the combination of α-lipoic acid and enalapril (FIG. 5b) on the membrane-bound thiol expression of peritoneal macrophages in the experimental setup described above is presented. The membrane expression of thiols was determined by means of the mean fluorescence intensity (mfi) of the sample (3000 cells/measurement) after coupling to a chloro-methylfluorochrome derivative.

[4] = test system: peripheral immune cells; assay: membrane-bound thiol expression of peripheral immune cells (CMTMR flow cytofluorimetry); conditions: α-lipoic acid 50 μM, captopril 10 μM, combination at the same concentrations
Method: Peripheral immune cells of healthy donors (n=9) were isolated from the peripheral blood by means of density gradient centrifugation. Lymphocytes having a donor-dependent relative proportion of about 90% in this case normally represent the main fraction of the resulting total population of mononuclear cells. 10% of the mononuclear cells are represented by monocytes. The mononuclear cells obtained were taken up in special cell culture media and incubated in a gas incubator at 37° C., a relative humidity of 98% and 5% relative air-CO2 content. The metabolism of the primarily resting immune cells was activated by means of mitogenic stimulation (0.5 μg/ml of phytohemagglutinin). In order to test the influence of the combinations used according to the invention on the thiol status of thiol-deficient immune cells, these were artificially thiol-depleted. This was carried out by culturing in thiol-deficient media (RPMI 1603) according to tested procedures. Comparison cultures using whole media (RPMI 1640) served for the definition of the best possible normal value under culture conditions. The expression of membrane-bound thiol groups was likewise determined by flow cytofluorimetry. In this connection, chloromethyltetramethylrhodamine (CMTMR) was employed as a thiol conjugate under the conditions of a blocked membrane potential and of an inhibited diffusion capacity of the cells. The fluorescence intensity of the bound fluorochrome molecules on the cell membrane is in this case in turn proportional to the amount of the thiol groups on the cell surface.

[5] = test system: peritoneal macrophages; assay: cellular thiol expression of peritoneal macrophages in kidney replacement therapy; conditions: time kinetics over 14 days (n=12); FIG. 4
Method: Peritoneal macrophages were isolated from the effluate of the peritoneal dialysis of high-grade renally insufficient patients, taken up in cell culture medium and incubated in a gas incubator at 37° C., a relative humidity of 98% and 7.5% relative air-CO2 content. In order to test the influence of the combinations used according to the invention on the thiol status of the peritoneal macrophages, in each case a fraction was treated with α-lipoic acid, the effector of the glutathione metabolism ambroxole or the ACE inhibitor enalapril or with the combination of α-lipoic acid/ambroxole or α-lipoic acid/enalapril, while in each case a further fraction was used as an untreated control. The determination of the cellular thiol status was carried out by means of the measuring method described under 1. The membrane expression of thiols was determined by means of the mean fluorescence intensity (mfi) of the sample (3000 cells/measurement) after coupling to a chloromethylfluorochrome derivative. In FIG. 4, the effect of the combination of α-lipoic acid and ambroxole (FIG. 4a), and α-lipoic acid and enalapril (FIG. 4b) in the time kinetics over 14 days is shown (n=12).

O=C(O)CCCCC1CCSS1 (stereo not drawn) [α-lipoic acid]
action relative to the action of the combinations ([1]; after about 4 days in the dialysis model): approximately 50%
intracellular thiol status in the dialysis model (in words) ([1]; dialysis model over 14 days, FIG. 6): only short-lasting
CD15/69 ([2]; CD69 on CD15-positive cells): 1.09 ± 0.08
CD11c/71 ([2]; CD71 on CD11c-positive cells): 1.08 ± 0.09
CD11c [2]: 1.21 ± 0.11
CD15 [2]: 1.18 ± 0.16
effect on the membrane-bound thiol expression of peritoneal macrophages (in words) [3]: very marked effect of the sole administration of α-lipoic acid is to be noted here, which, however, is cancelled out again after 4 days of treatment
Membrane-bound thiol expression ([4]; culture period 0 d): 2.37 ± 0.45 mfiBeads/Ratio
Membrane-bound thiol expression ([4]; culture period 1 d): 2.65 ± 0.39 mfiBeads/Ratio
Membrane-bound thiol expression ([4]; culture period 2 d): 2.43 ± 0.52 mfiBeads/Ratio
Membrane-bound thiol expression ([4]; culture period 3 d): 2.31 ± 0.36 mfiBeads/Ratio
Membrane-bound thiol expression ([4]; culture period 4 d): 2.26 ± 0.20 mfiBeads/Ratio
Membrane-bound thiol expression ([4]; culture period 6 d): 2.19 ± 0.13 mfiBeads/Ratio
Membrane-bound thiol expression ([4]; culture period 8 d): 1.93 ± 0.20 mfiBeads/Ratio
Membrane-bound thiol expression ([4]; culture period 10 d): 1.63 ± 0.16 mfiBeads/Ratio
Membrane-bound thiol expression ([4]; culture period 12 d): 1.32 ± 0.21 mfiBeads/Ratio
Membrane-bound thiol expression ([4]; culture period 14 d): 1.34 ± 0.20 mfiBeads/Ratio
effect on the cellular thiol expression of peritoneal macrophages (in words) [5]: increase in the cellular thiol expression
